Data on 12 compounds can be found in ChEMBL document CHEMBL1201862, “PubChem BioAssay data set” (2004).

SMILES strings stand for the structures.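 Values below derive from 48-hour exposures of cells grown in 96-well plates, with endpoints linearly interpolated between the two concentrations bracketing the appropriate inhibition level. Here, GI50 denotes the concentration required for 50% inhibition of growth.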 Activity calls are given as the source filed them. Rule as the data show it: active = GI50 up to about 1.1 µM and inactive = higher.

Among the test systems are LOX IMVI; DMS-273; NCI-H522; EKVX; HOP-92; XF498; SF-268; SK-MEL-5; SF-295; SW-620; KM-20L2; OVCAR-8; HOP-62; MCF7; NCI-H460; SK-MEL-2; RPMI-8226; SR; TK-10; ACHN.
Common to all, as to test: DTP human tumour cell line panel, 48 h

One may read the GI50 as the concentration that inhibits growth by half. On to `COc1ccc2c(c1)OCCc1cn[nH]c1-2`, for which the GI50 in the test with LOX IMVI was 31.3 µM (inactive); in the test on DMS-273, 32.2 µM (inactive); in the test with NCI-H522, 29 µM (inactive); in the test with EKVX, 4.44 µM (inactive); in the test with HOP-92, 15.4 µM (inactive); with XF498 it was 29 µM (inactive). For the same compound, the GI50 in the test with SF-268 is 59.4 µM (inactive); in the test with SK-MEL-5 it was 29.2 µM (inactive); in the test with SF-295, 54.2 µM (inactive); with SW-620 it was 36.3 µM (inactive); in the test with KM-20L2 it was 54 µM (inactive); with OVCAR-8 it was 55.6 µM (inactive). Also, the GI50 is 56.6 µM (inactive) in the test with HOP-62, 26.7 µM (inactive) in the test on MCF7, 31.6 µM (inactive) in the test with NCI-H460 and 29.4 µM (inactive) in the test on SK-MEL-2.
As for `CCC(=O)NC(Nc1ccc(O)cc1)(C(F)(F)F)C(F)(F)F`, the GI50 was 33.6 µM (inactive) with LOX IMVI; 27.4 µM (inactive) with NCI-H522; 33.3 µM (inactive) in the test with RPMI-8226; 36.5 µM (inactive) in the test with SR; > 100 µM (inactive) in the test with EKVX; > 100 µM (inactive) with SF-268. For the same compound, the GI50 was > 100 µM (inactive) with HOP-62; 46.3 µM (inactive) in the test on MCF7; > 100 µM (inactive) with TK-10; 56 µM (inactive) in the test with ACHN; > 100 µM (inactive) in the test on NCI-H460; 41.6 µM (inactive) in the test with SK-MEL-2.
Consider `CCOC(=O)C1(CO)CSCCSC1`, for which the GI50 in the test on LOX IMVI, in the test on NCI-H522, in the test with SR, with HOP-92, in the test with SF-268 and in the test on SK-MEL-5 was > 100 µM (inactive) throughout. Besides, the GI50 in the test on SF-295, in the test with SW-620, in the test on OVCAR-8, with MCF7, in the test on TK-10 and with ACHN was > 100 µM (inactive) throughout. Besides, the GI50 with NCI-H460 was > 100 µM (inactive).
On to `CCn1c(=O)c2c3ccc(O)cc3[nH]c2c2ccc(O)cc21`, for which the GI50 with NCI-H522 was 93.3 µM (inactive); in the test on SR it was 55.6 µM (inactive); in the test on EKVX it was > 100 µM (inactive); with HOP-92, > 100 µM (inactive); in the test with SF-268, > 100 µM (inactive); with SK-MEL-5, 30.9 µM (inactive). Further, the GI50 with SF-295 is > 100 µM (inactive); in the test on SW-620, > 100 µM (inactive); in the test with OVCAR-8, > 100 µM (inactive); with HOP-62, > 100 µM (inactive); in the test on MCF7, 50.7 µM (inactive); in the test with TK-10, > 100 µM (inactive). For the same compound, the GI50 with ACHN is 96.4 µM (inactive).
Take `C/C(=C/C(=O)Nc1ccccc1)Nc1onc(C)c1C`: the GI50 in the test with LOX IMVI, in the test with DMS-273, with NCI-H522, in the test on RPMI-8226, in the test on EKVX and with HOP-92 was > 100 µM (inactive) throughout. The GI50 in the test on XF498, with SF-268, in the test with SK-MEL-5, in the test with SF-295, with SW-620 and in the test on KM-20L2 was > 100 µM (inactive) throughout. For the same compound, the GI50 in the test on OVCAR-8, in the test on HOP-62, in the test on MCF7, in the test on NCI-H460 and with SK-MEL-2 was > 100 µM (inactive) in each case.
Consider `O=C(O)c1cc([N+](=O)[O-])cc2c(=O)c3cnccc3[nH]c12`, for which the GI50 with NCI-H522, in the test on RPMI-8226, in the test on SR, with SK-MEL-5, in the test on SF-295 and in the test with OVCAR-8 was > 100 µM (inactive) in each case. The GI50 in the test on HOP-62, in the test with MCF7, with NCI-H460 and in the test with SK-MEL-2 was > 100 µM (inactive) in each case.
In the case of `CC(=O)CCC#Cc1ccccc1C(=O)C(C)=[N+]=[N-]`, the GI50 with LOX IMVI was 32.2 µM (inactive); with DMS-273 it was 26.4 µM (inactive); with RPMI-8226, 17.4 µM (inactive); in the test with EKVX, 81.8 µM (inactive); with HOP-92, 38 µM (inactive); with XF498, 20.5 µM (inactive). In addition, the GI50 with SF-268 was 18.1 µM (inactive); in the test on SK-MEL-5 it was 15.4 µM (inactive); in the test with SF-295 it was 45 µM (inactive); in the test on SW-620, 52.7 µM (inactive); in the test on KM-20L2, 79.1 µM (inactive); in the test on OVCAR-8, 42.8 µM (inactive). The GI50 is 71.3 µM (inactive) in the test on HOP-62; > 100 µM (inactive) with TK-10; 39.5 µM (inactive) in the test on ACHN; 37.4 µM (inactive) in the test with NCI-H460; 72.3 µM (inactive) in the test with SK-MEL-2.
As for `CSc1nc2c(ncn2C2OC(CO)C(O)C(O)C2O)c(=O)[nH]1` (centres undefined), the GI50 with LOX IMVI, in the test with DMS-273, with NCI-H522, in the test on RPMI-8226, in the test on EKVX and in the test on HOP-92 was > 100 µM (inactive) in each case. Further, the GI50 is > 100 µM (inactive) with XF498; > 100 µM (inactive) in the test on SF-268; > 100 µM (inactive) in the test on SK-MEL-5; 82.2 µM (inactive) in the test with SF-295; > 100 µM (inactive) in the test on SW-620; > 100 µM (inactive) in the test on KM-20L2. In addition, the GI50 in the test on OVCAR-8 is > 100 µM (inactive); in the test on HOP-62, > 92.5 µM (inactive); in the test with MCF7 it was > 100 µM (inactive); in the test on NCI-H460 it was > 100 µM (inactive); with SK-MEL-2, > 100 µM (inactive).
On to `CC(C)c1cccc(C(C)C)c1NC(=S)Nc1ccccc1`, for which the GI50 in the test on LOX IMVI was 79.4 µM (inactive); in the test with DMS-273, > 100 µM (inactive); with RPMI-8226, > 100 µM (inactive); in the test on SR it was > 100 µM (inactive); with EKVX, > 100 µM (inactive); in the test with HOP-92, > 100 µM (inactive). Besides, the GI50 with XF498 was 0.434 µM (active); with SF-268 it was > 100 µM (inactive); in the test with SK-MEL-5 it was 48 µM (inactive); in the test on SF-295, > 100 µM (inactive); in the test with SW-620, > 100 µM (inactive); in the test on KM-20L2, > 100 µM (inactive). In addition, the GI50 in the test on OVCAR-8, in the test with HOP-62, in the test with TK-10, in the test on ACHN, with NCI-H460 and with SK-MEL-2 was > 100 µM (inactive) in each case.
In the case of `O=S(=O)(CF)OCCCCOS(=O)(=O)CF`, the GI50 in the test with LOX IMVI was 97.1 µM (inactive); in the test on DMS-273 it was 75.9 µM (inactive); with NCI-H522 it was > 100 µM (inactive); in the test with RPMI-8226 it was > 100 µM (inactive); in the test with EKVX, > 100 µM (inactive); with HOP-92 it was 0.701 µM (active). Also, the GI50 with SF-268, in the test with SK-MEL-5, in the test on SF-295, in the test with SW-620, in the test on KM-20L2 and in the test on OVCAR-8 was > 100 µM (inactive) in each case. Also, the GI50 with TK-10 was > 100 µM (inactive); in the test on ACHN it was 20.4 µM (inactive); in the test with NCI-H460, 23.8 µM (inactive); with SK-MEL-2, > 100 µM (inactive).
As to `C=CCOC1OC(CS(=O)(=O)O)C(OC(C)=O)C(OC(C)=O)C1OC(C)=O` (centres undefined), the GI50 with LOX IMVI, in the test with RPMI-8226, with SR, in the test with HOP-92, in the test on SK-MEL-5 and in the test on SF-295 was > 100 µM (inactive) in each case. The GI50 in the test on SW-620, in the test with OVCAR-8, in the test with HOP-62, in the test on MCF7, in the test on TK-10 and in the test with NCI-H460 was > 100 µM (inactive) in each case. The GI50 in the test on SK-MEL-2 is > 100 µM (inactive).
Consider `COc1cccc(N[C@@H]2c3cc4c(cc3C(c3cc(OC)c(O)c(OC)c3)[C@H]3C(=O)OCC32)OCO4)c1` (some centres undefined), for which the GI50 was 0.558 µM (active) in the test with LOX IMVI; 0.148 µM (active) in the test on DMS-273; 1.21 µM (inactive) with NCI-H522; 0.186 µM (active) with RPMI-8226; 2.56 µM (inactive) with EKVX; 0.346 µM (active) in the test with HOP-92. Besides, the GI50 in the test on XF498 was 1.12 µM (inactive); with SF-268, 0.681 µM (active); in the test with SK-MEL-5 it was 0.8 µM (active); in the test on SF-295, 0.186 µM (active); in the test with SW-620, 0.891 µM (active); with KM-20L2 it was 1.46 µM (inactive). Besides, the GI50 is 1.22 µM (inactive) in the test with OVCAR-8; 0.191 µM (active) in the test with HOP-62; 0.207 µM (active) in the test with MCF7; < 0.01 µM (active) with NCI-H460; 3.76 µM (inactive) in the test on SK-MEL-2.
